Source: PubChem BioAssay (NCI)
“And” between values parts separate entries of the source, which are not always exact repeats. Equal entries are not always repeated.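 Results reflect a 48-hour exposure of cells in 96-well plates to compound at five concentrations. GI50 is the concentration that inhibits growth by half. TGI: total growth inhibition.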

What was measured:
Assay in all cases: NCI anticancer screen, dose series, 48 h
DLD-1 colon = system: DLD-1 colon
KM20L2 colon = system: KM20L2 colon
M19-MEL melanoma = system: M19-MEL melanoma
SNB-78 CNS = system: SNB-78 CNS
XF 498 CNS = system: XF 498 CNS
BT-549 breast = system: BT-549 breast
MCF7 breast = system: MCF7 breast
MDA-MB-231 breast = system: MDA-MB-231 breast
NCI/ADR-RES ovarian = system: NCI/ADR-RES ovarian
PC-3 prostate = system: PC-3 prostate

| SMILES | TGI (DLD-1 colon) [µM] | TGI (KM20L2 colon) [µM] | TGI (M19-MEL melanoma) [µM] | TGI (SNB-78 CNS) [µM] | TGI (XF 498 CNS) [µM] | also measured |
| --- | --- | --- | --- | --- | --- | --- |
| CCOC(=O)/C(O)=C(/c1n[nH]c(=O)c2ccccc12)[N+](=O)[O-] | > 100 | > 100 | > 100 | > 100 | – | – |
| CCOC(=O)C12CCCC1(O)N(NC(=O)c1ccccc1)C(C)=C2C(=O)OC (stereo unspecified) | – | > 100 | > 100 | > 100 | – | – |
| COc1ccc(C(=O)C(c2ccc(OC)cc2)C2(O)C(=O)Nc3ccccc32)cc1 (stereo unspecified) | > 100 | > 100 | > 100 | > 100 | > 100 | – |
| CC(=O)OC(/C=C1/C=CC(=O)O1)COC(=O)c1ccccc1 (stereo unspecified) | > 31.2 | > 31.2 | > 31.2 | > 31.2 | > 31.2 | – |
| CCC(C)(C)C(=O)O[C@H]1C[C@@H](C)C=C2C=C[C@H](C)[C@H](CC[C@@H]3C[C@@H](O)CC(=O)O3)[C@H]21 | > 30 | > 30 | > 30 | > 30 | > 30 | GI50 (BT-549 breast): 4.61 µM; TGI (BT-549 breast): 18.2 µM; GI50 (MCF7 breast): 12.2 µM; TGI (MCF7 breast): 26.7 µM; GI50 (MDA-MB-231 breast): 0.224 µM; TGI (MDA-MB-231 breast): 0.732 µM; GI50 (NCI/ADR-RES ovarian): 0.614 µM; TGI (NCI/ADR-RES ovarian): 12.1 µM; GI50 (PC-3 prostate): 0.367 µM; TGI (PC-3 prostate): 14.5 µM |
| [O-]c1c2c(nn1-c1ccccc1)c1ccccc1c[n+]2Cc1ccccc1 | > 100 | > 100 | > 100 | > 100 | > 100 | – |
| COc1cc(/C=C2/C(=O)N(C(=O)OC(C)C)C(Cc3cc(OC)c(OC)c(C)c3OC)C(=O)N2Cc2ccccc2)c(OC)c(C)c1OC (stereo unspecified) | > 100 | > 100 | > 100 | – | – | – |
| O=C(O)/C=C/n1c2ccccc2c(=O)c2ccccc21 | > 100 | > 100 | > 100 | > 100 | > 100 | – |
| CCC[CH2][Sn]1([CH2]CCC)[O]C(=O)c2cc(I)cc(I)c2[O]1 | 2.42 | 3.39 | 2.19 | 2.37 | – | GI50 (DLD-1 colon): 1.15 µM; GI50 (KM20L2 colon): 1.84 µM; GI50 (M19-MEL melanoma): 1 µM; GI50 (SNB-78 CNS): 0.536 µM |
| O=S(=O)(/C=C/c1ccc(Cl)cc1Cl)Cc1ccccc1CS(=O)(=O)/C=C/c1ccc(Cl)cc1Cl | > 100 | > 100 | > 100 | > 100 | > 100 | – |
| CCOC12OC3=C(CC1CC1=C(CCC1=O)O2)C(=O)CC3 (stereo unspecified) | > 100 | > 100 | > 100 | > 100 | – | – |
| C=CCCC(OCOCCOC)c1cc(C)c(O[Si](C)(C)C(C)(C)C)c(C)c1 (stereo unspecified) | – | 29 | 55.3 | > 100 | – | – |
| Cc1[nH]c2ccccc2c1C1Cc2ccccc2N1C(=O)/C=C/C=C/c1ccccc1 (stereo unspecified) | > 100 | > 100 | > 100 | > 100 | – | – |
| Cc1cc(O)cc2oc(=O)c3c(O)cc(O)cc3c12 | > 100 | > 100 | > 100 | > 100 | 59.3 | – |
| C/C(CC(=O)Nc1ccc(Cl)c(Cl)c1)=N/NC(=O)C[n+]1ccccc1 | – | > 100 | > 100 | > 100 | > 100 | – |
| COc1ccc(C(=O)OCC2OC(n3cnc4c(=S)nc[nH]c43)C(OC(=O)c3ccc(OC)cc3)C2OC(=O)c2ccc(OC)cc2)cc1 (stereo unspecified) | > 100 | > 100 | > 100 | – | – | – |
| COc1ccc2c(=O)c(C)c(-c3ccccc3)oc2c1CN(C)C | > 100 | > 100 | > 100 | > 100 | > 100 | GI50 (M19-MEL melanoma): > 100 µM and 42.4 µM |
| COc1ccc(C[C@@H]2Cc3cc(OC)c(OC)cc3CN2C)cc1 | > 100 | > 100 | – | > 100 | > 100 | – |

| SMILES | TGI (DLD-1 colon) [µM] | TGI (KM20L2 colon) [µM] | TGI (M19-MEL melanoma) [µM] | TGI (SNB-78 CNS) [µM] | TGI (XF 498 CNS) [µM] | also measured |
| --- | --- | --- | --- | --- | --- | --- |
| CC1(C)COC(C23C4C5C2C2C3C4C52I)=N1 (stereo unspecified) | > 100 | > 100 | > 100 | > 100 | > 100 | – |
| CCOC(C)C(/C=N/NC(N)=S)=NNC(N)=S (stereo unspecified) | > 100 | – | > 100 | > 100 | – | – |
| O=S1c2ccccc2N=C(c2ccc3ccccc3c2)CC1C1=CC=CCC1 (stereo unspecified) | 26 | 37.2 | 31.2 | – | 31.6 | – |
| Cc1c(Cl)ccc2c1NC(=O)C2(O)C(C(=O)c1ccccc1)c1ccccc1 (stereo unspecified) | > 100 | > 100 | 30.6 | > 100 | 96.9 | – |
| CCCN(CCCCC(NC(C)=O)C(=O)NCc1ccccc1)C(=O)N(C)N=O (stereo unspecified) | > 100 | > 100 | > 100 | > 100 | > 100 | – |
| COc1ccc2c(c1)c(=O)c1ccccc1n2/C=C/C(=O)O | > 66.2 | > 100 | – | > 100 | > 100 | – |
| COc1cc(/C=C2\[C@H]3c4c(c(OC)c(C)c(OC)c4OC)C[C@@H](C(=O)N2Cc2ccccc2)N3C(=O)OCC(C)C)c(OC)c(C)c1OC | > 100 | > 100 | > 100 | – | > 100 | – |
| COC(=O)/C=C1/CCC2[C@@H](C(=O)CC3[C@]2(C)CCC[C@@]3(C)C(=O)OC)C1C (stereo partly specified) | 37.1 | 29.5 | 31.2 | 40.5 | 30.3 | – |
| CN(C)CCNC(=O)c1cc2ccccc2c2nc3ccccc3nc12 | 3.59 | 2.93 | 2.67 | 16.4 | – | – |
| CCCCCCCCCCCCCC(=O)O[C@H]1CC[C@H](NC(=O)[C@H](OC)[C@H](O)[C@@H](O)[C@H](O)/C=C/C(C)C)C(=O)NC1 | – | 8.34 | 8.23 | – | 0.305 | GI50 (BT-549 breast): 12.8 µM; TGI (BT-549 breast): 51.2 µM; GI50 (KM20L2 colon): 0.0453 µM; GI50 (M19-MEL melanoma): 0.0245 µM; GI50 (MCF7 breast): 0.00512 µM; TGI (MCF7 breast): 8.64 µM and 22.6 µM; GI50 (MDA-MB-231 breast): 0.00638 µM; TGI (MDA-MB-231 breast): 13.5 µM; GI50 (NCI/ADR-RES ovarian): 3.58 µM; TGI (NCI/ADR-RES ovarian): 51.2 µM and 26.3 µM; GI50 (PC-3 prostate): 0.0152 µM; TGI (PC-3 prostate): 51.2 µM and 12.7 µM |
| COC(=O)NC1C(C)OC(OC2C/C=C(/C)C3C=CC4C(OC5CC(OC6CC(O)C(OC7CC(O)C(OC)C(C)O7)C(C)O6)C(O)C(C)O5)C(C)CC(C)C4C3(C)/C(O)=C3\C(=O)OC4(CC(C)C(CO)=CC4/C=C\2C)C3=O)CC1(C)[N+](=O)[O-] (stereo unspecified) | 40.4 | 34 | 13.1 | 29.8 | 27 | TGI (BT-549 breast): 41.4 µM; GI50 (MCF7 breast): 11.8 µM; TGI (MCF7 breast): 44 µM and 13.3 µM; TGI (MDA-MB-231 breast): 36 µM; GI50 (NCI/ADR-RES ovarian): > 50 µM; TGI (NCI/ADR-RES ovarian): > 100 µM; TGI (PC-3 prostate): 50 µM |
| Cc1cc(NS(=O)(=O)c2ccc(N=Nc3cc(N=Nc4ccc(S(=O)(=O)Nc5cc(C)nc(C)n5)cc4)c4c(NC(=O)C(Cl)Cl)cccc4c3OC(=O)C(Cl)Cl)cc2)nc(C)n1 (tested in a mixture with another compound) | 33.4 | 60.8 | > 100 | > 100 | – | – |
| CCOC(=O)/C(=C\c1ccc(O)c(OC)c1)C(=O)c1ccccc1 | 38.2 | > 56.7 | 79.6 | 8.36 | > 52 | – |
| O=S(=O)(O)O.[NH-]C1CCCCC1[NH-].[Pt+2] (stereo unspecified) | > 100 | > 100 | > 100 | > 100 | – | GI50 (DLD-1 colon): 27.8 µM; GI50 (KM20L2 colon): 35.8 µM; GI50 (M19-MEL melanoma): > 100 µM; GI50 (SNB-78 CNS): > 100 µM |
| CS(=O)(=O)NNS(=O)(=O)c1cccc([N+](=O)[O-])c1 | > 100 | > 100 | > 100 | – | > 100 | – |
| Cc1ccc(NC(=O)CCC(CC(=O)C(C)(C)C)=NNC(=O)C(=O)NN)cc1C | > 100 | > 100 | > 100 | – | > 100 | – |
| Cc1ccc(NC(=O)C(=O)C2C(=O)N(c3ccccc3)N=C2N)cc1C (stereo unspecified) | > 100 | > 100 | > 100 | > 100 | > 100 | – |
| COC(=O)C1=C(O)c2cc(OC)c(OC)c(OC)c2[C@H](c2cc(OC)c(OC)c(OC)c2)C1C(=O)OC (stereo partly specified) | > 100 | 37.5 | – | > 100 | > 100 | – |
